Data: patent US8329674B2, “Film forming dental compositions and related methods” (3M Innovative Properties Company, priority 2007, dated 2012)
Structures can show the parent of a compound that is named as a salt. Where two headings read alike, the source gives them in different places.

What was measured:
Assay type in all cases: cell-based
[1] = test system: Streptococcus mutans culture (ATCC 25175); assay: Quantitative Biofilm Inhibition Test; conditions: for activity at 1 % w/w: Streptococcus mutans, ATCC25175, 20 h, read-out: OD Ratio
Description: Compounds of the dental compositions of the invention, and comparative compounds, were evaluated for biofilm inhibition activity. Composite dental restorative (available under the trade designation “FILTEK SUPREME” from 3M ESPE Dental Products, St. Paul, Minn.) was placed in a 15 millimeter by 1 millimeter stainless steel die. […] While the die containing the composite restorative was under compression, the composite was irradiated for two minutes using a Model ACE light source (available from SCHOTT North America, Inc., Auburn, N.Y.). The discs of cured composite restorative were then further cured using a Model UniXS light box (available from Heraeus Kulzer, Inc., Armonk, N.Y.) for 1.5 minutes.
The samples were incubated at 37° C. for approximately twenty hours, after which time the cured discs were removed from the broth and were gently rinsed with water. Each disc was placed in a separate test tube containing five milliliters of 1M aqueous sodium hydroxide solution, and each test tube was then sonicated for two minutes using a model SH1012-40-8 ultrasonic generator (manufactured by Branson Ultrasonics Corp., Danbury, Conn.) for two minutes to dislodge biofilm on the disc. The optical absorbance (optical density) of each aqueous sodium hydroxide solution was then measured at 550 nm using a Model ULTROSPEC III UV-visible spectrophotometer (manufactured by Pharmacia AB, Uppsala, Sweden). For each compound of the dental composition, five discs were separately incubated in broth and were evaluated separately to provide five optical density measurements. The average of the five optical density measurements was then calculated. […] The average optical density of the control or comparative samples was determined as described above. […] The ratio was considered to be proportional to the average amount of biofilm on the five cured discs, i.e., relatively low average optical density ratio was considered to be indicative of inhibition of biofilm formation. The ratio for the control was 100%.
(§1) The Quantitative Biofilm Inhibition Test was carried out using five compounds of the dental composition and eleven comparative compounds, each at a concentration of 1 weight percent. […] In addition, the Qualitative Biofilm Inhibition Test was carried out for each Example and Comparative Example, in which each disc was visually examined before it was placed in the tube containing the aqueous sodium hydroxide solution.

[2] = test system: Streptococcus mutans culture (ATCC 25175); assay: Qualitative Biofilm Inhibition Test; parameters: key: +: refers to a visual assessment that a compound inhibited biofilm formation; −: refers to a visual assessment that either a compound did not inhibit biofilm formation, or that bacteria grew in the culture broth; conditions: 1 weight percent compound; visible biofilm on disc after incubation and rinse
Description: as §1, with “During the procedure for the Quantitative Biofilm Inhibition Test, each cured disc was visually examined after it was removed from the broth (and rinsed with water) and before it was placed in a test tube containing five milliliters of 1M aqueous sodium hydroxide solution. The presence or absence of visible biofilm on a disc was noted. The” for “The”

Streptococcus mutans = assay: Bacterial Kill Rate Test
Description: Compounds of the dental compositions of the invention were evaluated for extent of bacterial kill in culture. Overnight cultures of Streptococcus mutans in brain heart infusion broth (10^6 CFU/mL) was mixed with a 0.1 weight percent, 0.5 weight percent, or 1.0 weight percent aqueous solution of each compound of the dental composition. After a period of 2, 5, or 10 minutes, 1.0 mL of the mixture was transferred via pipette into a first tube containing 9.0 mL of Letheen broth to provide a 10^−1 dilution. The contents of the tube were mixed using a vortex mixer. A 1.0 mL aliquot of this sample was transferred via pipette into a second tube containing 9.0 mL of Letheen broth to provide a 10^−2 dilution. A 0.1 mL aliquot of each dilution was plated and spread in duplicate on sheep blood agar in Petri dishes, using a “hockey stick” applicator, to provide 10^−2 and 10^−3 dilutions, respectively, on each plate. The plates were incubated at 37° C. for a period of 48 to 72 hours, and then the colony forming units were counted. The CFU counts were compared and the log reduction in the counts were calculated. In Table 3, the bacteria count reduction (log reduction) is the difference between the log of the initial bacteria count and the log of the bacteria count after 2, 5, and 10 minutes.

[3] = 1 weight percent compound, broth with 1.0 weight percent sucrose, approx. twenty hours at 37° C., average OD at 550 nm as percentage of control (100%)

OC[C@@H](O)[C@H](O)[C@@H](O)CO [Xylitol]
activity at 1 % w/w [1, 3]: 123%
Visual Assessment [2]: −

N[C@H]1C(O)O[C@H](CO)[C@H](O)[C@@H]1O (stereo partly drawn) [Galactosamine HCl, D-galactosamine]
activity at 1 % w/w [1, 3]: 0%
Visual Assessment [2]: +
Bacteria Count Reduction (log reduction) (Streptococcus mutans; 0.1 wt % compound, 2 min.): 1.13 log reduction
Bacteria Count Reduction (log reduction) (Streptococcus mutans; 0.1 wt % compound, 5 min.): 1.00 log reduction
Bacteria Count Reduction (log reduction) (Streptococcus mutans; 0.1 wt % compound, 10 min.): 0.96 log reduction
Bacteria Count Reduction (log reduction) (Streptococcus mutans; 0.5 wt % compound, 2 min.): 0.89 log reduction
Bacteria Count Reduction (log reduction) (Streptococcus mutans; 0.5 wt % compound, 5 min.): 1.08 log reduction
Bacteria Count Reduction (log reduction) (Streptococcus mutans; 0.5 wt % compound, 10 min.): 1.31 log reduction

OC[C@H]1O[C@@H](O[C@@H]2[C@@H](O)[C@H](O[C@@H]3[C@@H](O)[C@H](O[C@H]4[C@H](O)[C@@H](CO)OC(O)[C@@H]4O)O[C@H](CO)[C@H]3O)O[C@H](CO)[C@H]2O)[C@H](O)[C@@H](O)[C@@H]1O (stereo partly shown) [Laminaritetraose]
OD Ratio [1, 3]: 97%
Visual Assessment [2]: −

CC(=O)N[C@H]1C(O)O[C@H](CO)[C@H](O)[C@@H]1O (stereo partly shown) [N-Acetylgalactosamine]
activity at 1 % w/w [1, 3]: 138%
Visual Assessment [2]: −

CC(=O)N[C@H]1C(O)O[C@H](CO)[C@@H](O)[C@@H]1O (stereo partly shown) [N-Acetylglucosamine, reference compound]
activity at 1 % w/w [1, 3]: 83%
Visual Assessment [2]: −
Bacteria Count Reduction (log reduction) (Streptococcus mutans; 0.1 wt % compound, 2 min.): 1.09 log reduction
Bacteria Count Reduction (log reduction) (Streptococcus mutans; 0.1 wt % compound, 5 min.): 1.02 log reduction
Bacteria Count Reduction (log reduction) (Streptococcus mutans; 0.1 wt % compound, 10 min.): 1.04 log reduction
Bacteria Count Reduction (log reduction) (Streptococcus mutans; 0.5 wt % compound, 2 min.): 1.12 log reduction
Bacteria Count Reduction (log reduction) (Streptococcus mutans; 0.5 wt % compound, 5 min.): 1.16 log reduction
Bacteria Count Reduction (log reduction) (Streptococcus mutans; 0.5 wt % compound, 10 min.): 0.99 log reduction
Bacteria Count Reduction (log reduction) (Streptococcus mutans; 1.0 wt % compound, 2 min.): 1.05 log reduction
Bacteria Count Reduction (log reduction) (Streptococcus mutans; 1.0 wt % compound, 5 min.): 1.12 log reduction
Bacteria Count Reduction (log reduction) (Streptococcus mutans; 1.0 wt % compound, 10 min.): 1.06 log reduction

CC(=O)N[C@@H]1C(O)O[C@H](CO)[C@@H](O)[C@@H]1O (stereo partly shown) [N-Acetylmannosamine, reference compound]
activity at 1 % w/w [1, 3]: 51%
Visual Assessment [2]: −
Bacteria Count Reduction (log reduction) (Streptococcus mutans; 0.5 wt % compound, 2 min.): 0.93 log reduction
Bacteria Count Reduction (log reduction) (Streptococcus mutans; 0.5 wt % compound, 5 min.): 1.54 log reduction
Bacteria Count Reduction (log reduction) (Streptococcus mutans; 0.5 wt % compound, 10 min.): 1.61 log reduction

OC[C@H]1O[C@@H](O[C@H]2[C@H](O)[C@@H](O)C(O)O[C@@H]2CO)[C@H](O)[C@@H](O)[C@H]1O (stereo partly shown) [Lactose]
activity at 1 % w/w [1]: 82%
Visual Assessment [2]: −

OC[C@H]1O[C@@H](OC[C@H]2O[C@@H](O)[C@H](O)[C@@H](O)[C@@H]2O)[C@H](O)[C@@H](O)[C@@H]1O [beta-Gentiobiose]
OD Ratio [1, 3]: 124%
Visual Assessment [2]: −

O=C(CO)[C@@H](O)[C@@H](O)[C@H](O)CO [D-Tagatose]
activity at 1 % w/w [1, 3]: 145%
Visual Assessment [2]: −

C[C@H](O)[C@@H](O)[C@@H](O)[C@H](O)C=O [Fucose]
activity at 1 % w/w [1, 3]: 121%
Visual Assessment [2]: −

O=C[C@H](O)[C@@H](O)[C@@H](O)[C@H](O)CO [Galactose]
activity at 1 % w/w [1, 3]: 87%
Visual Assessment [2]: −
